Values of other authors as cited in patent publication US20050214224A1, “Lipid formulations for spontaneous drug encapsulation” (Nektar Therapeutics, priority 2003, published 2005).

Conditions: hydrated state; lipid excipient

Row | hydrated liquid transition temperature | SMILES
1 | 42 °C | CCCCCCCCCCCCCCCC(=O)OC[C@H](COP(=O)([O-])OCC[N+](C)(C)C)OC(=O)CCCCCCCCCCCCCCC [DPPC, dipalmitoylphosphatidylcholine]
2 | 23.5 °C | CCCCCCCCCCCCCC(=O)OC[C@H](COP(=O)([O-])OCC[N+](C)(C)C)OC(=O)CCCCCCCCCCCCC [DMPC, dimyristoylphosphatidylcholine]
